For assay [1], the system named is MT4. The assay can be described thus: Cytotoxic concentration required to reduce viability of mock-infected MT-4 cells by 50%. Format: functional. Particulars: Homo sapiens.
The subject of assay [2] is MT4. The assay can be described thus: Effective concentration required to achieve 50% protection of MT-4 cells against the cytopathic effect of HIV-1. The format is functional, cell-based. Particulars: Homo sapiens. A general note: Damage to the host cells serves as the signal in cytopathic effect assays.

Each structure is given as a SMILES string.

One may read the CC50 as the concentration giving 50% cytotoxicity. A high value points to better tolerance by the cells. Usually EC50 stands for the concentration that produces a half-maximal response. A lower EC50 goes with higher potency in that assay.

As to `CCOCn1c(Cc2cccc(N=[N+]=[N-])c2)c(CC)c(=O)[nH]c1=O`, in assay [1], the midpoint of cytotoxicity, the CC50, lay at 117 µM. The EC50 in assay [2] stood at 0.011 µM.

Turning to `CCOCn1c(Cc2cccc(O)c2)c(CC)c(=O)[nH]c1=O`, half-maximal cytotoxicity in assay [1] (CC50) was put at 201 µM. The response in assay [2] was half-maximal at 0.4 µM (EC50).

`CCOCn1c(Sc2ccccc2)c(CC)c(=O)[nH]c1=O` came in with a CC50 in assay [1] of 197 µM. The same compound came in with an EC50 in assay [2] of 0.018 µM.

As for `CCOCn1c(C(=O)c2cccc([N+](=O)[O-])c2)c(CC)c(=O)[nH]c1=O`, the CC50 in assay [1] turned out to be 232 µM. The same compound yielded an EC50 in assay [2] of 0.21 µM.

Compound `CCOCn1c(Cc2cccc(N)c2)c(CC)c(=O)[nH]c1=O` came in with a CC50 in assay [1] of 297 µM. This compound gave an EC50 in assay [2] of 0.14 µM.

For `CCOCn1c(C(OC(C)=O)c2cccc([N+](=O)[O-])c2)c(CC)c(=O)[nH]c1=O` (stereo not drawn), it took 283 µM to reach half-maximal cytotoxicity in assay [1] (CC50). In assay [2], this compound had an EC50 of 29 µM.

On to `Cc1c(Sc2ccccc2)n(COCCO)c(=O)[nH]c1=O` [HEPT], for which it took 740 µM to reach half-maximal cytotoxicity in assay [1] (CC50).

(Values after ChEMBL document CHEMBL1126533, “Synthesis of a potential photoaffinity labelling reagent for HIV-1 reverse transcriptase” (Bioorg Med Chem Lett, 1993).)
